Legend:
Cathepsin D = Cathepsin D (Homo sapiens, UniProt P07339); test: Inhibition of human cathepsin-D using DABCYL-Glu-Arg-Nle-Phe-Leu-Ser-Phe-Pro-EDANS as substrate preincubated for 30 mins by FRET assay
Plasmepsin I = Plasmepsin I (Plasmodium falciparum, UniProt P39898); test: Inhibition of Plasmodium falciparum plasmepsin-1 using DABCYL-Glu-Arg-Nle-Phe-Leu-Ser-Phe-Pro-EDANS as substrate preincubated for 30 mins by FRET assay
Plasmepsin II = Plasmepsin II (Plasmodium falciparum, UniProt P46925); test: Inhibition of Plasmodium falciparum plasmepsin-2 using DABCYL-Glu-Arg-Nle-Phe-Leu-Ser-Phe-Pro-EDANS as substrate preincubated for 30 mins by FRET assay
[1] = Inhibition of Plasmodium falciparum plasmepsin-4 using DABCYL-Glu-Arg-Nle-Phe-Leu-Ser-Phe-Pro-EDANS as substrate preincubated for 30 mins by FRET assay
Plasmodium falciparum [2] = test: Antimalarial activity against blood-stage Plasmodium falciparum 3D7 assessed as inhibition of parasite growth after 96 hrs by SYBR Green I assay; format: functional, organism-based; conditions: 3D7, 96 h
Plasmodium falciparum [3] = test: Antimalarial activity against intra erythrocytic Plasmodium falciparum assessed as inhibition of parasite growth; format: functional, organism-based

Sequence of Plasmepsin II (P46925 whole entry): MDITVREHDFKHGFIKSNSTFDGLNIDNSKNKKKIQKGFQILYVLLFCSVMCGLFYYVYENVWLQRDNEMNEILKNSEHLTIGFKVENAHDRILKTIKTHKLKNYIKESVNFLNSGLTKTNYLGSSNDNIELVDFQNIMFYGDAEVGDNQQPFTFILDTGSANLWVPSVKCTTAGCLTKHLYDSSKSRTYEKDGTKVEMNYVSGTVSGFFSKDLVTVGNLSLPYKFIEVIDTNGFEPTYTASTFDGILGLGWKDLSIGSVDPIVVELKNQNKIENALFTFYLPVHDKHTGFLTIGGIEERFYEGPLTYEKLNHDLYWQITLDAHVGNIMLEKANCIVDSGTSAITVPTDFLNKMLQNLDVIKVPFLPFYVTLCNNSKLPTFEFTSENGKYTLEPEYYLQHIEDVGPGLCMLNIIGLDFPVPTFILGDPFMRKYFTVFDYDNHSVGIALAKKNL
Sequence of Plasmepsin I (P39898 whole entry): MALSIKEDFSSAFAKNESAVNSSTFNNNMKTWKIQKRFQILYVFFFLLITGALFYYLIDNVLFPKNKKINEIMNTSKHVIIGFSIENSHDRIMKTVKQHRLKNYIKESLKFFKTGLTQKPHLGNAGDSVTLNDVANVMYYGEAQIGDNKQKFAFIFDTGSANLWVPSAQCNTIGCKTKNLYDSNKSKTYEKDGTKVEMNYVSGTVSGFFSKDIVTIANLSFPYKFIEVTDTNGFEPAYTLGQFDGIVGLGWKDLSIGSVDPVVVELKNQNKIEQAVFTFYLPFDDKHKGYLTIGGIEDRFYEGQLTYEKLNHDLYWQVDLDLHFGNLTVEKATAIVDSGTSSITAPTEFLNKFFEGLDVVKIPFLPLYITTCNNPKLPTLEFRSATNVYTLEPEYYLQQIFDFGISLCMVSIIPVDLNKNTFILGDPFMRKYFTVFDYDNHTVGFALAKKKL
Sequence of Cathepsin D (P07339 65-162 limits assumed): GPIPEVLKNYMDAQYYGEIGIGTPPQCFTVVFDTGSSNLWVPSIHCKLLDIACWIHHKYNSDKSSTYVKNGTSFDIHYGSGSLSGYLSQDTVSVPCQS
Sequence of Cathepsin D (P07339 169-412 limits assumed): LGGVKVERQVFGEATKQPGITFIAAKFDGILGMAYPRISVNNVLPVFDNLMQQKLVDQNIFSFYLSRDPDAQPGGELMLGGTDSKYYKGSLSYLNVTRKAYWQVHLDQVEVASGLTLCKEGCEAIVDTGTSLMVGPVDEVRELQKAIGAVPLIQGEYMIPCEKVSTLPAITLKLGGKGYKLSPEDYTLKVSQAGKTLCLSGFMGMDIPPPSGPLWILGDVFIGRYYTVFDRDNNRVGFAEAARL

Row | SMILES | IC50 (Cathepsin D) [nM] | IC50 (Plasmepsin I) [nM] | IC50 (Plasmepsin II) [nM] | IC50 [1] [nM] | IC50 (Plasmodium falciparum [2]) [nM] | IC50 (Plasmodium falciparum [3]) [nM]
1 | CCCN(CCC)C(=O)c1cc(C(=O)N[C@@H](Cc2ccccc2)[C@H](O)CNC(C)(C)c2cccc(OC)c2)cc(-c2ccccc2)c1 | 54 | 250 | 72 | 6 | 2 | 
2 | CCCN(CCC)C(=O)c1cc(C(=O)N[C@@H](Cc2ccccc2)[C@@H](O)CNC(C)(C)c2cccc(OC)c2)cc(N2CCCCS2(=O)=O)c1 | 4400 | 18000 | 14000 | 470 | 200 | 
3 | CCCN(CCC)C(=O)c1cc(C(=O)N[C@@H](Cc2ccccc2)[C@H](O)CNC(C)(C)c2cncc(OC)c2)cc(N2CCCCC2)c1 | 68 | 600 | 190 | 23 |  | 
4 | CCCN(CCC)C(=O)c1cc(C(=O)N[C@@H](Cc2ccccc2)[C@H](O)CNC(C)(C)c2cccc(OC)c2)cc(C2CCCCC2)c1 | 19 | 200 | 36 | 25 |  | 
5 | CCCN(CCC)C(=O)c1cc(C(=O)N[C@@H](Cc2ccccc2)[C@H](O)CNC(C)(C)c2ccccn2)cc(N2CCCCC2)c1 | 350 | 4100 | 800 | 250 |  | 
6 | CCCN(CCC)C(=O)c1cc(C(=O)N[C@@H](Cc2ccccc2)[C@H](O)CNC(C)(C)c2cccnc2)cc(N2CCCCC2)c1 | 140 | 350 | 190 | 64 |  | 
7 | COc1cccc(C(C)(C)NC[C@@H](O)[C@H](Cc2ccccc2)NC(=O)c2cc(C(N)=O)cc(N3CCCCC3)c2)c1 | 500 | 7600 | 4400 | 170 |  | 
8 | CCCN(CCC)C(=O)c1cc(C(=O)N[C@@H](Cc2ccccc2)[C@H](O)CNC(C)(C)c2cccc(OC)c2)cc(N2CCCCS2(=O)=O)c1 | 43 | 700 | 150 | 29 | 2 | 30
9 | CCCN(CCC)C(=O)c1cc(C(=O)N[C@@H](Cc2ccccc2)[C@@H](O)CNC(C)(C)c2ccccc2)cc(N2CCCCS2(=O)=O)c1 | 5800 | 45000 | 24000 | 720 |  | 
10 | CCCN(CCC)C(=O)c1cc(C(=O)N[C@@H](Cc2ccccc2)[C@H](O)CNCc2cccc(OC)c2)cc(N2CCCCS2(=O)=O)c1 | 360 | 18000 | 2700 | 200 |  | 
11 | CCCN(CCC)C(=O)c1cc(C(=O)N[C@@H](Cc2ccccc2)[C@H](O)CNC(C)(C)c2cccc(O)c2)cc(N2CCCCC2)c1 | 40 | 360 | 100 | 19 |  | 
12 | CCCN(CCC)C(=O)c1cc(C(=O)N[C@@H](Cc2ccccc2)[C@H](O)CNC(C)(C)c2cccc(OC)c2)cc(N2CCCC2)c1 | 32 | 430 | 120 | 7 | 4 | 
13 | CCCN(CCC)C(=O)c1cc(C(=O)N[C@@H](Cc2ccccc2)[C@H](O)CNC(C)(C)c2cccc(OC)c2)cc(N2CCCCC2)c1 | 42 | 300 | 70 | 24 | 6 | 
14 | CCCN(CCC)C(=O)c1cc(C(=O)N[C@@H](Cc2ccccc2)[C@H](O)CNC(C)(C)c2ccccc2)cc(N2CCCCC2)c1 | 51 | 380 | 110 | 23 |  | 
15 | COc1cccc(C(C)(C)NC[C@@H](O)[C@H](Cc2ccccc2)NC(=O)c2cc(C(=O)N3CCCC3)cc(N3CCCCC3)c2)c1 | 38 | 1600 | 500 | 110 |  | 
16 | CCCN(CCC)C(=O)c1cc(C(=O)N[C@@H](Cc2ccccc2)[C@H](O)CNC(C)(C)c2ccccc2)cc(N2CCCCS2(=O)=O)c1 | 120 | 2300 | 320 | 48 |  | 
17 | CCCNC(=O)c1cc(C(=O)N[C@@H](Cc2ccccc2)[C@H](O)CNC(C)(C)c2cccc(OC)c2)cc(N2CCCCC2)c1 | 110 | 750 | 500 | 38 |  | 
18 | CCCN(CCC)C(=O)c1cc(C(=O)N[C@@H](Cc2ccccc2)[C@H](O)CNC(C)(C)c2ccncc2)cc(N2CCCCC2)c1 | 170 | 470 | 270 | 90 |  | 
19 | CCCN(CCC)C(=O)c1cc(C(=O)N[C@@H](Cc2ccccc2)[C@H](O)CNCc2cccc(OC)c2)cc(N2CCCCC2)c1 | 200 | 6100 | 600 | 180 |  | 
20 | CCCN(CCC)C(=O)c1cc(C(=O)N[C@@H](Cc2ccccc2)[C@H](O)CNC2(c3cccc(OC)c3)CC2)cc(N2CCCCC2)c1 | 100 | 330 | 150 | 25 |  | 

Reference: ChEMBL document CHEMBL3259525, “Plasmepsin inhibitory activity and structure-guided optimization of a potent hydroxyethylamine-based antimalarial hit” (ACS Med Chem Lett, 2014)
